{"source": "patent US7488732B2", "about": "“2-substituted pyrimidines” (BASF Aktiengesellschaft, priority 2003, dated 2009)", "key": {"Sphaerotheca fuliginea": {"tested_on": "Sphaerotheca fuliginea", "assay": "Activity against mildew on cucumber leaves caused by Sphaerotheca fuliginea, protective application", "assay_type": "in vivo", "details": "250 ppm, protective spray on cucumber seedlings, rated after 7 days; untreated control 90% infection", "protocol": "The active compounds were prepared as a stock solution with 0.25% by weight of active compound in acetone or DMSO. 1% by weight of the emulsifier Uniperol® EL (wetting agent having emulsifying and dispersing action based on ethoxylated alkylphenols) was added to this solution, and the solution was diluted with water to the desired concentration. 3. Activity against mildew on cucumber leaves caused by Sphaerotheca fuliginea, protective application Leaves of potted cucumber seedlings of the cultivar “Chinese snake” were, at the cotyledon stage, sprayed to runoff point with an aqueous suspension of the active compound concentration given below. 20 hours after the spray coating had dried on, the plants were inoculated with an aqueous spore suspension of mildew of cucumber (Sphaerotheca fuliginea). The plants were then cultivated in a greenhouse at temperatures between 20 and 24° C. and 60 to 80% relative atmospheric humidity for 7 days. The extend of the mildew development was then determined visually in % infection of the coltyledon area."}, "Botrytis cinerea": {"tested_on": "Botrytis cinerea", "assay": "Activity against gray mold on capsicum leaves caused by Botrytis cinerea, protective application", "assay_type": "in vivo", "details": "250 ppm, protective spray on capsicum seedlings, rated after 5 days; untreated control 90% infection", "protocol": "The active compounds were prepared as a stock solution with 0.25% by weight of active compound in acetone or DMSO. 1% by weight of the emulsifier Uniperol® EL (wetting agent having emulsifying and dispersing action based on ethoxylated alkylphenols) was added to this solution, and the solution was diluted with water to the desired concentration. 2. Activity against gray mold on capsicum leaves caused by Botrytis cinerea, protective application Capsicum seedlings of the cultivar “Neusiedler Ideal Elite” were, after 4-5 leaves had fully developed, sprayed to runoff point with an aqueous suspension of the active compound concentration given below. The next day, the treated plants were inoculated with a spore suspension of Botrytis cinerea comprising 1.7×10^6 spores/ml in a 2% aqueous biomalt solution. The test plants were subsequently placed in a climatized chamber at 22 to 24° C. and high atmospheric humidity. After 5 days, the extent of the fungal infection on the leaves could be determined visually in %."}}}
{"smiles": "CCC(C)Cc1nc(C#N)nc(C)c1-c1c(F)cc(F)cc1F", "note": "(centres unmarked) [I-4, 2-Cyano-4-methyl-5-(2,4,6-trifluorophenyl)-6-(2-methylbutyl)pyrimidine]", "values": [{"measurement": "infection (mildew, determined visually in % infection of the cotyledon area)", "setting": "Sphaerotheca fuliginea", "result": "no infection"}, {"measurement": "infection (gray mold on leaves, determined visually in %)", "setting": "Botrytis cinerea", "result": "no infection"}]}
